Measured values taken from the supplement of paper PMC10307832.

How the values were obtained:
Test in all cases: relative viability (nuclei count vs DMSO), 5 days (fraction); higher = more cells survive
Doramapimod + Olaparib = compound: Cc1ccc(-n2nc(C(C)(C)C)cc2NC(=O)Nc2ccc(OCCN3CCOCC3)c3ccccc23)cc1 [Doramapimod] + O=C(c1cc(Cc2n[nH]c(=O)c3ccccc23)ccc1F)N1CCN(C(=O)C2CC2)CC1 [Olaparib] (partner 8 µM)
Procedure, shortened: (§1)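 Each reported value is a median over duplicate plates. It expresses relative viability: treated-well nuclei count divided by vehicle-well nuclei count. Lung cancer cell lines in 1536-well plates were dosed by pin tool a day after seeding, alone with one drug or with a fixed anchor-drug dose plus five library-drug doses (not always all listed) in √10 steps, and nuclei were counted after 5 days.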

RAF265 + Decitabine = compound: Cn1c(Nc2ccc(C(F)(F)F)cc2)nc2cc(Oc3ccnc(-c4ncc(C(F)(F)F)[nH]4)c3)ccc21 [RAF265] + Nc1ncn([C@H]2C[C@H](O)[C@@H](CO)O2)c(=O)n1 [Decitabine] (partner 2 µM)
Procedure, shortened: as §1

RAF265 + Lapatinib = compound: Cn1c(Nc2ccc(C(F)(F)F)cc2)nc2cc(Oc3ccnc(-c4ncc(C(F)(F)F)[nH]4)c3)ccc21 [RAF265] + CS(=O)(=O)CCNCc1ccc(-c2ccc3ncnc(Nc4ccc(OCc5cccc(F)c5)c(Cl)c4)c3c2)o1 [Lapatinib] (partner 2 µM)
Procedure, shortened: as §1

Doramapimod + Luminespib = compound: Cc1ccc(-n2nc(C(C)(C)C)cc2NC(=O)Nc2ccc(OCCN3CCOCC3)c3ccccc23)cc1 [Doramapimod] + CCNC(=O)c1noc(-c2cc(C(C)C)c(O)cc2O)c1-c1ccc(CN2CCOCC2)cc1 [Luminespib] (partner 0.01 µM)
Procedure, shortened: as §1

Cell Line | relative viability (Doramapimod + Olaparib; first compound 0.02 µM) | relative viability (Doramapimod + Olaparib; first compound 0.06325 µM) | relative viability (Doramapimod + Olaparib; first compound 0.2 µM) | relative viability (Doramapimod + Olaparib; first compound 0.6325 µM) | relative viability (Doramapimod + Olaparib; first compound 2 µM) | relative viability (RAF265 + Decitabine; first compound 0.01 µM) | relative viability (RAF265 + Decitabine; first compound 0.03162 µM) | relative viability (RAF265 + Decitabine; first compound 0.1 µM) | relative viability (RAF265 + Decitabine; first compound 0.3162 µM) | relative viability (RAF265 + Decitabine; first compound 1 µM) | relative viability (RAF265 + Lapatinib; first compound 0.01 µM) | relative viability (RAF265 + Lapatinib; first compound 0.03162 µM) | relative viability (RAF265 + Lapatinib; first compound 0.1 µM) | relative viability (RAF265 + Lapatinib; first compound 0.3162 µM) | relative viability (RAF265 + Lapatinib; first compound 1 µM) | relative viability (Doramapimod + Luminespib; first compound 0.02 µM) | relative viability (Doramapimod + Luminespib; first compound 0.06325 µM) | relative viability (Doramapimod + Luminespib; first compound 0.2 µM) | relative viability (Doramapimod + Luminespib; first compound 0.6325 µM) | relative viability (Doramapimod + Luminespib; first compound 2 µM)
LXF-289 | 1.03 | 1.01 | 1.05 | 1.08 | 1.02 | 0.446 | 0.399 | 0.393 | 0.345 | 0.26 | 0.942 | 0.953 | 0.858 | 0.785 | 0.743 | 0.644 | 0.757 | 0.607 | 0.732 | 0.616
NCI-H23 | 0.397 | 0.352 | 0.417 | 0.335 | 0.311 | 0.335 | 0.317 | 0.258 | 0.266 | 0.175 | 1.2 | 0.87 | 0.75 | 0.545 | 0.409 | 0.23 | 0.204 | 0.218 | 0.209 | 0.221
NCI-H322M | 0.849 | 0.827 | 0.864 | 0.857 | 0.884 | 0.704 | 0.667 | 0.593 | 0.495 | 0.395 | 0.579 | 0.529 | 0.481 | 0.342 | 0.258 | 0.661 | 0.914 | 0.831 | 0.946 | 1.02
NCI-H358 | 0.54 | 0.565 | 0.516 | 0.676 | 0.511 | 0.25 | 0.206 | 0.164 | 0.15 | 0.154 | 0.491 | 0.524 | 0.336 | 0.434 | 0.341 | 0.276 | 0.424 | 0.516 | 0.38 | 0.208
NCI-H460 | 0.453 | 0.431 | 0.422 | 0.459 | 0.419 | 0.505 | 0.458 | 0.567 | 0.499 | 0.48 | 1.01 | 0.934 | 0.853 | – | 0.646 | 0.032 | 0.0205 | 0.0311 | 0.0341 | 0.0277
NCI-H520 | 0.336 | 0.359 | 0.354 | 0.364 | 0.305 | 0.567 | 0.418 | 0.478 | 0.452 | 0.345 | 0.894 | 0.873 | 0.776 | 0.694 | 0.498 | 0.195 | 0.212 | 0.24 | 0.206 | 0.232
NCI-H596 | 0.747 | 0.695 | 0.749 | 0.73 | 0.788 | 1.06 | 0.975 | 0.913 | 1.13 | 0.925 | 1.09 | 1.09 | 1.11 | 0.897 | 0.743 | 0.927 | 1 | 1 | 0.994 | 0.842
NCI-H647 | 0.475 | 0.488 | 0.509 | 0.443 | 0.444 | 0.394 | 0.33 | 0.357 | 0.266 | 0.262 | 1.19 | 0.937 | 0.828 | 0.711 | 0.809 | 0.189 | 0.224 | 0.151 | 0.347 | 0.154
NCI-H650 | 0.468 | 0.47 | 0.403 | 0.413 | 0.395 | 0.342 | 0.319 | 0.395 | 0.308 | 0.288 | 0.959 | 0.849 | 0.922 | 0.602 | 0.328 | 0.869 | 0.83 | 0.827 | 0.853 | 0.713
NCI-H661 | 0.797 | 0.756 | 0.785 | 0.717 | 0.75 | 0.692 | 0.527 | 0.435 | 0.442 | 0.378 | 0.539 | 0.466 | 0.532 | 0.442 | 0.308 | 0.99 | 0.917 | 0.986 | 0.914 | 0.909
NCI-H727 | 0.711 | 0.723 | 0.772 | 0.726 | 0.595 | 0.885 | 0.854 | 0.708 | 0.805 | 0.75 | 0.915 | 0.736 | 0.963 | 1.1 | 0.371 | 0.363 | 0.312 | 0.342 | 0.306 | 0.225
NCI-H838 | 0.794 | 0.833 | 0.811 | 0.873 | 0.737 | 0.516 | 0.49 | 0.494 | 0.466 | 0.391 | 1.02 | 0.927 | 0.972 | 0.971 | 0.885 | 0.406 | 0.372 | 0.245 | 0.347 | 0.268
NCI-H1355 | 0.76 | 0.732 | 0.708 | 0.721 | 0.7 | 0.387 | 0.323 | 0.363 | 0.326 | 0.26 | 1.07 | 0.969 | 0.842 | 0.85 | 0.596 | 0.721 | 0.689 | 0.706 | 0.723 | 0.648
NCI-H1395 | 0.463 | 0.462 | 0.466 | 0.498 | 0.421 | 0.753 | 0.664 | 0.66 | 0.707 | 0.549 | 1.41 | 0.943 | 0.957 | 0.942 | 0.912 | 0.621 | 0.605 | 0.641 | 0.79 | 0.679
NCI-H1437 | 0.645 | 0.641 | 0.654 | 0.657 | 0.637 | 0.613 | 0.622 | 0.571 | 0.661 | 0.574 | 0.897 | 0.776 | 0.77 | 0.784 | 0.78 | 1.2 | 1.21 | 1.16 | 1.15 | 1.2
NCI-H1650 | 0.82 | 0.831 | 0.682 | 0.874 | 0.884 | 0.424 | 0.439 | 0.426 | 0.4 | 0.472 | 0.844 | 0.749 | 0.874 | 0.325 | 0.637 | 0.186 | 0.171 | 0.195 | 0.176 | 0.209
